Data: PMC11798738, “Targeting ASK1 by CS17919 alleviates kidney‐ and liver‐related diseases in murine models” (Animal Models and Experimental Medicine, 2024)
Marks after values point to notes of the source that are not given here.

How the values were obtained:
L02 cells = assay: Cell protection in PA-stimulated L02 cells (Cell Titer-Glo viability); type: cell-based, human; details: 50 μmol/L PA, 72 h
Description: L02 cells were cultured in DMEM medium (Gibco, 11 965 092, Carlsbad, CA, USA) supplemented with 20% FBS and 1× penicillin–streptomycin. L02 cells were inoculated in two 96‐well plates at 1E4 cells/well (200 μL). The following day, the cells were stimulated with 50 μmol/L PA (dissolved in ethanol to make a 200× stock solution and then added to the medium) and simultaneously incubated with different concentrations of CS17919 and GS‐4997 (CS17919 and GS‐4997 stock solutions were added to the well plates to reach a final concentration of 10–0.3 μmol/L). After 72 h of incubation, the original medium was removed, followed by the addition of 100 μL of new DMEM medium and 60 μL of Cell Titer‐Glo reagent per well. The cells were incubated for 5 min in the dark, and then transferred to a black permeable plate for detection using an enzyme plate reader (Tecan spark, Grödig, Austria).

MRC‐5 = assay: MTS cytotoxicity assay, MRC-5; type: cell-based, human; details: 72 h
Description: (§1) Human embryonic kidney cells (HEK‐293A), human hepatocellular carcinoma cells (HUH7), human embryonic liver diploid cells (CCC‐HEL‐1) and human embryonic lung cells (MRC‐5) were selected for the cytotoxicity study of both drugs, using the MTS assay protocol. Cells were cultured at 37°C with 5% CO2 using an appropriate medium. […] After 72 h of incubation, 30 μL of MTS solution was added to each well, and the cells were then incubated for 2–4 h in the dark. The absorbance value of each well at 490 nm was measured using an enzymatic plate reader and the IC50 for each drug and each cell line was calculated. Cell viability and cytoxicity experiments were repeated three times.

HUH7 = assay: MTS cytotoxicity assay, HUH7; type: cell-based, human; details: 72 h
Description: as §1

CCC‐HEL‐1 = assay: MTS cytotoxicity assay, CCC-HEL-1; type: cell-based, human; details: 72 h
Description: as §1

HEK‐293A = assay: MTS cytotoxicity assay, HEK-293A; type: cell-based, human; details: 72 h
Description: Human embryonic kidney cells (HEK‐293A), human hepatocellular carcinoma cells (HUH7), human embryonic liver diploid cells (CCC‐HEL‐1) and human embryonic lung cells (MRC‐5) were selected for the cytotoxicity study of both drugs, using the MTS assay protocol. Cells were cultured at 37°C with 5% CO2 using an appropriate medium. For the assay, the cells were evenly distributed at 1E4 cells/well in 96‐well plates, and then CS17919 or GS‐4997 was added to the plates in a dose‐dependent manner (3‐fold dilution from 100 μmol/L). After 72 h of incubation, 30 μL of MTS solution was added to each well, and the cells were then incubated for 2–4 h in the dark. The absorbance value of each well at 490 nm was measured using an enzymatic plate reader and the IC50 for each drug and each cell line was calculated. Cell viability and cytoxicity experiments were repeated three times.

[1] = Pharmacokinetic study in mice, oral; type: in vivo, C57BL/6J mice; details: mouse plasma, mean ± SD, n = 3
Description: Male C57BL/6J mice (Beijing Huafukang Biotechnology Co., Ltd, Beijing, China) were selected at 6–8 weeks for the experiment. […] About 50–60 μL of blood and tissue were isolated in anticoagulation tubes at 15, 30 min, 1, 2, 4, 6, and 8 h after administration, respectively, and then centrifuged at 5000 r/min for 7 min at 4°C. […] The standard solution was prepared with 7 concentrations and QC with 3. The standard and QC working solutions were added to the 96‐well plate, and the protein was precipitated by adding acetonitrile solution containing the internal standard together with the sample to be tested. After shaking for 10 min and centrifugation at 12 000 × g for 10 min, the supernatants from the 96‐well plate were analyzed by LC–MS (mobile phase: 0.1% formic acid‐water 0.1% formic acid‐acetonitrile). Raw data were imported into Phoenix WinNonlin to calculate AUC, C max, T 1/2, etc.

NASH mouse model = assay: CCL4- and HFD-induced NASH mouse model; type: in vivo, C57BL/6J mice; details: CS17919 20 mg/kg
Description: 41 C57BL/6J mice, male, 6–8 weeks of age, were purchased from Chengdu Dossy Experimental Animal Co. (Chengdu, China), 9 of which were assigned in the control group and fed a chow diet. The other 32 mice were fed a HFD (D12429, Research diet, USA). After 8 weeks of feeding, these mice with HFD were subcutaneously injected with CCL4 (0.1 mL/kg) twice a week. These mice were then randomly subdivided into 4 groups according to serum ALT and AST at week 12: Model (n = 8), CS17919 (n = 8), CS27109 (n = 8), and Combination (n = 8). Both the control and model groups were given the solvent mentioned above, administered orally twice a day, while CS17919 was administered twice a day by gavage at a dose of 20 mg/kg and CS27109 was administered twice a day by gavage at a dose of 10 mg/kg for 4 weeks. The body weight of each mouse was measured every 3 days during the drug intervention. All animals were fasted overnight after the last drug administration and blood was collected to isolate serum for biochemical tests including AST, ALT, TG, TC, HDL‐c, and LDL‐c. The liver of each mouse was removed, the right lobe of which was fixed in 10% formalin solution for pathological study.
H&E staining was applied to determine scores for liver steatosis, ballooning and inflammation in the NASH model. Thin 4 μm paraffin sections of each sample were used to assess liver histology, following a standard protocol. Paraffin sections were deparaffinized and placed in Hematoxylin staining solution for 3–8 min before using tap water to elute excess Hematoxylin. Sections were stained in Eosin stain for about 1–3 min and rinsed with tap water. Finally, the slices were dehydrated and sealed. Score ranges were 0–3 for liver steatosis, 0–2 for ballooning and 0–12 for inflammation (which included scores of 0–3 for portal inflammation, 0–3 for lobular inflammation, 0–3 for piecemeal necrosis, and 0–3 for bridging necrosis).
Sirius Red staining was applied to determine liver fibrosis in the NASH model. Thin 4 μm paraffin sections of each sample were used in this study followed the standard procedure. Sections were first stained with Hematoxylin for 5–10 min, then washed and stained with Sirius Red stain about 15–30 min. Finally, the sections were rinsed and sealed. Image‐Pro Plus 6.0 was used for analyzing the area of liver fibrosis and the percentage of the fibrosis area in each section was calculated.

CYP 2D6 = CYP 2D6 (Homo sapiens, UniProt P10635); assay: CYP inhibition in vitro; type: in vitro ADME
Sequence of CYP 2D6 (P10635 whole entry): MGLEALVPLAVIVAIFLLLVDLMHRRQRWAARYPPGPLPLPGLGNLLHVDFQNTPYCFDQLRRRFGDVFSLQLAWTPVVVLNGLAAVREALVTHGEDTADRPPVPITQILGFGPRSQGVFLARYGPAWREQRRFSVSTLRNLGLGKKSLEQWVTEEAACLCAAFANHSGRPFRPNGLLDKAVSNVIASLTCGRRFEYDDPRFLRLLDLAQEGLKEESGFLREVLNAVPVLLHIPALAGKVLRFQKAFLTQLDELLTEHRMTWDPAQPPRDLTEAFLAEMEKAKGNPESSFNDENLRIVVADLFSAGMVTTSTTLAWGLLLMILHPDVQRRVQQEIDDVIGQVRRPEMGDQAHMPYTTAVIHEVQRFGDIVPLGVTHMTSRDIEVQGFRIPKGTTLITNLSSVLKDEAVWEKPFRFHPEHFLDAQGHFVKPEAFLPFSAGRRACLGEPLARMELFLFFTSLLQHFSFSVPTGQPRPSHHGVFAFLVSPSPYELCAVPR

[2] = Metabolic stability in liver microsomes; type: in vitro ADME; details: Rat
CYP 1A2 = CYP 1A2 (Homo sapiens, UniProt P05177)
Sequence of CYP 1A2 (P05177 whole entry): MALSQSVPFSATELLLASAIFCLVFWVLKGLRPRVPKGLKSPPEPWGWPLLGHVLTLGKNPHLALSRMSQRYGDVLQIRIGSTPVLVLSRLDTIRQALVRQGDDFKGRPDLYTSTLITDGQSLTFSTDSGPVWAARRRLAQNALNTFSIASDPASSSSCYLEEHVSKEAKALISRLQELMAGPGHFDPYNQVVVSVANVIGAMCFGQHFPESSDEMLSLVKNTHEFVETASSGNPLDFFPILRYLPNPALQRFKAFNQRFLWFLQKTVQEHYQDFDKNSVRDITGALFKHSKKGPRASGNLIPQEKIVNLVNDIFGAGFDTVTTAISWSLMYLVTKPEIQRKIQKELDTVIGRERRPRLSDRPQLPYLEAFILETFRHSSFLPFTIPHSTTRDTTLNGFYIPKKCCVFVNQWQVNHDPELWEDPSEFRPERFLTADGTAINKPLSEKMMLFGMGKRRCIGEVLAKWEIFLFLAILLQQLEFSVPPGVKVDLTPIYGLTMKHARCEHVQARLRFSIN

CYP3A4 = CYP3A4 (Homo sapiens, UniProt P08684); assay: CYP inhibition in vitro; details: read-out: CYP3A4 (Midazolam) inhibition IC50; substrate Midazolam
Sequence of CYP3A4 (P08684 whole entry): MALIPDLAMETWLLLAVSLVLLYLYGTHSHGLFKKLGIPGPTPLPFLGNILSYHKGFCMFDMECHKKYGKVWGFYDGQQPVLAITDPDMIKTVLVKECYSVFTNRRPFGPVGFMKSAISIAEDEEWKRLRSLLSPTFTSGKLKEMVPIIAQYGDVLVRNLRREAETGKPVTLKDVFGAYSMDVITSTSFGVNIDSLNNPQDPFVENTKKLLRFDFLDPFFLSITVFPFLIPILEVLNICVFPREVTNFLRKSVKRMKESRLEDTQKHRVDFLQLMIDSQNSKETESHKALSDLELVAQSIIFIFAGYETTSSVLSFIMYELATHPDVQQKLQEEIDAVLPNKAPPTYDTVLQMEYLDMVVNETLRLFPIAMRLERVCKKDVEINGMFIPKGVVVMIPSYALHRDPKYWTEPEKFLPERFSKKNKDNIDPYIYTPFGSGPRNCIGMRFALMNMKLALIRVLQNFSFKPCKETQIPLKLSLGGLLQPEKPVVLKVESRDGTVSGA

human ASK1 kinase = human ASK1 kinase (Homo sapiens, UniProt Q99683); assay: ASK1 kinase inhibition, HTRF assay; details: read-out: IC50, inhibition of ASK1, full-length recombinant human ASK1
Sequence of human ASK1 kinase (Q99683 whole entry): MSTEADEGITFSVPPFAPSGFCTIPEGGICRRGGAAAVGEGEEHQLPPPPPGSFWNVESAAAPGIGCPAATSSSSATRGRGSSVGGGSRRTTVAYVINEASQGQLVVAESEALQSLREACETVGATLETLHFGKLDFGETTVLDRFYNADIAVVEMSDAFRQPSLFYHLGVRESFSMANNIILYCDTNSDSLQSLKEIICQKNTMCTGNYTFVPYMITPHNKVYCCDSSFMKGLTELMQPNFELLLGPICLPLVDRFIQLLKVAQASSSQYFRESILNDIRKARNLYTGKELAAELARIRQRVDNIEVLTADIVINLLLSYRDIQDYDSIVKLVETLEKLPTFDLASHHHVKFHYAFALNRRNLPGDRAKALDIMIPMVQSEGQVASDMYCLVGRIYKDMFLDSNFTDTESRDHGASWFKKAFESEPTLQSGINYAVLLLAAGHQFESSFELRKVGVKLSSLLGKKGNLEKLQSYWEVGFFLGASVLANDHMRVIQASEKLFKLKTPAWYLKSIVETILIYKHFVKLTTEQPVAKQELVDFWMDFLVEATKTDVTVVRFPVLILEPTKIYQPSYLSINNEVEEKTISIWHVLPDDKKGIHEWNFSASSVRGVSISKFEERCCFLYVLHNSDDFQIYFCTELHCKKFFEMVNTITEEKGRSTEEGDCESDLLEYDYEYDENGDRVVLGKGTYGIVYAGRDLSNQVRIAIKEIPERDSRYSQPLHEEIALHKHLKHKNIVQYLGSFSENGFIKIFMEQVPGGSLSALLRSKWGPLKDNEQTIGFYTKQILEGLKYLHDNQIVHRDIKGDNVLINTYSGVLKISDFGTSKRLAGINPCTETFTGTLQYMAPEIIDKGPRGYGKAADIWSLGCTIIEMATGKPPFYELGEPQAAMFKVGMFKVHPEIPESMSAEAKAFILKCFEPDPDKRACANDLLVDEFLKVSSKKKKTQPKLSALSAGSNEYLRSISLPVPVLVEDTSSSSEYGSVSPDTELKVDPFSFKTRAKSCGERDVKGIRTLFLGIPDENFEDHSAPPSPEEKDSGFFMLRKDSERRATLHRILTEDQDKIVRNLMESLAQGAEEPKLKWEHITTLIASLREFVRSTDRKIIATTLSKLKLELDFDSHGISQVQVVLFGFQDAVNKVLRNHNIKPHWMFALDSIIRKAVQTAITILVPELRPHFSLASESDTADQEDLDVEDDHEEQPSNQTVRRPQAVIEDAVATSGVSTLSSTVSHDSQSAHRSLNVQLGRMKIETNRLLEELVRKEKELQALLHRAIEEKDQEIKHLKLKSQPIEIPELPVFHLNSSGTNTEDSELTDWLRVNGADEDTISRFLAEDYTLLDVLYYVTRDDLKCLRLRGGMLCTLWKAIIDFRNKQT
Description: Enzymatic activity analysis was repeated three times. IC50 results were obtained using Prism 8.0 (GraphPad Prism Software).

[3] = 4 weeks, CS27109 10 mg/kg twice a day
[4] = serum after 4 weeks, CS27109 10 mg/kg, gavage twice a day, mean ± SD

Cc1cc(F)c(C(=O)Nc2cccc(-c3nncn3[C@H](C)C(F)(F)F)n2)cc1NC(=O)C1CC1 [CS17919]
Cell protection (cell viability normalized to PA-treated cells) (L02 cells; 0.32–10 μmol/L drug): significantly prevented apoptosis at all doses
Cell viability at high drug doses (L02 cells; 5 and 10 μmol/L drug): mild protective effect
Cytotoxicity (cell viability) (MRC‐5): barely affected cell viability
Cytotoxicity (cell viability) (HUH7): barely affected cell viability
Cytotoxicity (cell viability) (CCC‐HEL‐1): barely affected cell viability
Cytotoxicity (cell viability) (HEK‐293A): barely affected cell viability
Cmax ([1]; 20 mg/kg p.o.): 4039 ± 646.90 ng/mL
MRT0–∞ ([1]; 20 mg/kg p.o.): 3.96 ± 0.91 h
T 1/2 ([1]; 20 mg/kg p.o.): 2.20 ± 0.74 h
T max ([1]; 20 mg/kg p.o.): 1.50 ± 0.87 h
Cmax ([1]; 50 mg/kg p.o.): 5741 ± 1835 ng/mL
MRT0–∞ ([1]; 50 mg/kg p.o.): 6.43 ± 1.44 h
T 1/2 ([1]; 50 mg/kg p.o.): 3.50 ± 1.86 h
T max ([1]; 50 mg/kg p.o.): 2.00 ± 0 h
Liver fibrosis area (Sirius Red staining) (NASH mouse model; [3]): significantly reduced
Liver inflammation score (H&E) (NASH mouse model; [3]): tended to improve
Liver steatosis and ballooning scores (H&E) (NASH mouse model; [3]): barely improved
ALT (NASH mouse model; [4]): 120.9 ± 80.3^a U/L
AST (NASH mouse model; [4]): 193.3 ± 110.1 U/L
HDL‐C (NASH mouse model; [4]): 0.604 ± 0.231 mmol/L
LDL‐C (NASH mouse model; [4]): 0.054 ± 0.028^a mmol/L
TC (NASH mouse model; [4]): 0.719 ± 0.251 mmol/L
TG (NASH mouse model; [4]): 0.223 ± 0.106 mmol/L
IC50 (CYP 2D6): > 10 µM
T1/2 in liver microsomes [2]: >145 min
IC50 (CYP 1A2): > 10 µM
IC50 (CYP3A4): 3.02 µM
IC50 (human ASK1 kinase): 0.0225 µM
